Earlier results as cited in patent publication US11318113B2, “Compounds for the treatment of diseases linked to mitochondrial reactive oxygen species (ROS) production” (OP2 DRUGS, priority 2015, dated 2022).

System: complex I
Conditions: Orr et al., 2013; cited from earlier work

O=[N+]([O-])c1ccc(Oc2ccc(S(=O)(=O)NC3CCCCC3)cc2)cc1 [N-cyclohexyl-4-(4-nitrophenoxy) benzenesulfonamide]
activity of complex I as a component of the respiratory chain and oxidative phosphorylation: does not modify
